We go through one compound from US10383806B2, “Compositions including sesamin, methods of making and using the same in skin anti-aging and skin lightening applications” (Access Business Group International LLC, priority 2015, dated 2019).

Holding throughout (format): cell-based
Assay [1] relates to antioxidant response elements. In words: Anti-oxidant response element (ARE) luciferase reporter assay in stable HepG2 cells. To be noted: 48 hours, FIG. 4. An excerpt: Yet other embodiments relate to a method of decreasing a skin anti-inflammatory response comprising applying to the skin a composition in a cosmetically effective amount sufficient to decrease the skin anti-inflammatory response, wherein the composition comprises an amount of sesamin, individually or in combination with at least one other plant ingredient or plant extract from Pistacia (e.g., Pistacia lentiscus), Leontopodium (e.g., Leontopodium alpinium), Spirulina (e.g., Spirulina platensis), Oroxylum (e.g., Oroxylum indicum), Schizandra (e.g., Schizandra chinesis), Moringa (e.g., Moringa pterygosperma), Houttuynia (e.g., Houttuynia cordata), Isodon (e.g., Isodon japonicus), and Saxifraga (e.g., Saxifraga stolonifera), or mixtures thereof, and at least one pharmaceutically or cosmetically acceptable vehicle. […] Use of compositions that are capable of decreasing a skin anti-inflammatory response in the skin may result in improvement of the appearance of skin or at least one sign of aging in skin. Sesamin complex was dissolved in 70% DMSO and finally diluted […] in MEM containing Myrosinase (0.625 U/mL) and Ascorbic Acid (350 uM) and the final concentration of DMSO was 0.14%. […] The cells were grown in minimum essential media (MEM) with 10% fetal bovine serum and 150 ug/mL of hygromycin in a humidified atmosphere containing 5% CO2 at 37 C. For the assay, the cells were seeded at a density of 31,250 cells per well in a 96-well, white-walled, collagen coated plate. The following day, the media was removed and fresh growth media was added. After 24 hours, the cells were treated with test compounds for 48 hours (100 ug/mL, 50 ug/mL, 25 ug/mL, 12.5 ug/mL, and […]), lysed and the amount of luciferase produced was measured using a luciferase activity assay. Data were captured as relative luminescence units (RLUs) using an M5 Spectrophotometer (Molecular Devices, Inc).

For assay [2], the system named is Melan-a cells. In words: Melanin inhibition assay in Melan-a cells. Conditions: 4 days, concentrations of FIG. 5. On the procedure:
Melan-a cells seeded at a density of 5×10^4 cells per well were grown in a 24 well plate. Sesamin complex (S1) (at the concentrations indicated in the legend of FIG. 5) was dissolved in (DMSO) such that the final concentration of DMSO in the culture medium was maintained at 0.05%. Sesamin complex and Phenylthiourea (PTU) was added to the cells in triplicate and incubated for 2 days following which the cells were again treated with compounds supplemented with fresh medium. PTU at a concentration of 60 ug/ml was used as a positive inhibitor control in the melanin inhibition assay. Two days later, melanin was extracted and quantitated by normalizing with the protein content. After 4 days, melanin was extracted and cleared of the cell debris from each of the wells were dissolved by treating with 2N NaOH in 20% DMSO and incubating the samples for 60 min at 55° C. The melanin content in each sample was determined by measuring absorbance at 490 nm. Data were presented as % melanin content normalized to protein content in untreated wells compared to % melanin content extracted from samples.

For assay [3], the target named is T1, Gal4-PPARγ-LBD fusion protein (Homo sapiens, UniProt P37231).
T1 construct: The PPARγ-LBD (residues 203-477) was PCR amplified from human MGC: 5041; expressed in transfected cells
T1 sequence (P37231 203-477 isoform P37231-2): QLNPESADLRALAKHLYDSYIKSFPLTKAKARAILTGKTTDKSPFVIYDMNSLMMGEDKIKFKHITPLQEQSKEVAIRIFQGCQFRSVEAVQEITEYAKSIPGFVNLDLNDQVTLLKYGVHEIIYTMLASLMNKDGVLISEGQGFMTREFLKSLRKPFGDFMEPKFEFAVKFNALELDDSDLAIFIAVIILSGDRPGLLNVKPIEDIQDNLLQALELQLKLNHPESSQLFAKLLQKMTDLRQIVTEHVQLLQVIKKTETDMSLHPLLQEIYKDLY
The assay can be described thus: PPARγ activation luciferase reporter assay (Gal4-PPARγ-LBD, CHO-K1 cells). Conditions: 18-24 hours, FIG. 6, n=2. On the procedure: Troglitazone (positive control) was purchased from Sigma Corp. Sesamin sample was purchased from Virun Chemicals and a stock solution at a concentration of 100 mg/mL was prepared in 70% Dimethyl Sulfoxide (DMSO) and diluted to the indicated concentrations as shown in the figure. The final concentration of DMSO was maintained at 0.05% or lower. Stock solutions of troglitzone and sesamin samples were solubilized and diluted in DMSO prior to dilution in Dubelco's minimum essential media (DMEM) containing 0.5% Bovine serum Albumin (BSA) for testing. To study the activation of PPARγ in a luciferase reporter assay, a Gal4-PPARγ-ligand-binding domain (LBD) vector was created in a modified pF[…] (BIND) vector (Promega Inc). The PPARγ-LBD (residues 203-477) was PCR amplified from human MGC: 5041 (pSPORT6; Open Biosystems Inc.) and ligated into the pBIND3 vector forming a Gal4-PPARγ-LBD fusion protein. […] Luciferase was quantified using an activity assay from Biotium Inc. Briefly, at time of analysis, cells in white-walled 96-well plates were rinsed once using 50 μL of DPBS, then lysed with 20 μL of 1× passive lysis buffer. […] Reconstituted, room temperature D-luciferin was added (100 μL per well) and light emission was immediately read using an M-5 spectrophotometer (Molecular Devices, Inc.).

As to `c1cc2c(cc1[C@H]1OC[C@H]3[C@@H]1CO[C@@H]3c1ccc3c(c1)OCO3)OCO2` [sesamin], the “anti-oxidant response (% Response)” value in assay [1] (50 ug/mL, second highest response) is recorded as “activation of anti-oxidant pathways”; in assay [1] (100 ug/mL), “highest anti-oxidant response”. The “anti-oxidant response (% Response, luciferase RLU normalized to untreated 0% and sulforophane 100%)” value in assay [1] (HepG2 ARE-luciferase cells, 6.75-100 ug/mL) is “dose-dependent anti-oxidant response”. Also, the “melanin inhibition (% melanin content normalized to protein content)” value in assay [2] is reported as “dose dependent melanin inhibition”. In addition, the “activation of PPARγ (percent of control response)” value in assay [3] (sesamin at 70% (μg/mL)) and in assay [3] (sesamin at 90% (μg/mL)) was “dose-dependent activation of PPARγ” in each case.
